Results as given in patent publication US10294207B2, “Pyrazole derivatives as TNIK, IKKϵ and TBK1 inhibitor and pharmaceutical composition comprising same” (GREEN CROSS CORPORATION, priority 2015, dated 2019).

Experiments:
TBK1 = target: T1, TBK1 (Homo sapiens, UniProt Q9UHD2); assay: TBK1 inhibition, ADP-Glo Kinase Assay; format: biochemical; settings: luminometer
T1 construct: purchased Promega V3991
T1 sequence (Q9UHD2 1-729): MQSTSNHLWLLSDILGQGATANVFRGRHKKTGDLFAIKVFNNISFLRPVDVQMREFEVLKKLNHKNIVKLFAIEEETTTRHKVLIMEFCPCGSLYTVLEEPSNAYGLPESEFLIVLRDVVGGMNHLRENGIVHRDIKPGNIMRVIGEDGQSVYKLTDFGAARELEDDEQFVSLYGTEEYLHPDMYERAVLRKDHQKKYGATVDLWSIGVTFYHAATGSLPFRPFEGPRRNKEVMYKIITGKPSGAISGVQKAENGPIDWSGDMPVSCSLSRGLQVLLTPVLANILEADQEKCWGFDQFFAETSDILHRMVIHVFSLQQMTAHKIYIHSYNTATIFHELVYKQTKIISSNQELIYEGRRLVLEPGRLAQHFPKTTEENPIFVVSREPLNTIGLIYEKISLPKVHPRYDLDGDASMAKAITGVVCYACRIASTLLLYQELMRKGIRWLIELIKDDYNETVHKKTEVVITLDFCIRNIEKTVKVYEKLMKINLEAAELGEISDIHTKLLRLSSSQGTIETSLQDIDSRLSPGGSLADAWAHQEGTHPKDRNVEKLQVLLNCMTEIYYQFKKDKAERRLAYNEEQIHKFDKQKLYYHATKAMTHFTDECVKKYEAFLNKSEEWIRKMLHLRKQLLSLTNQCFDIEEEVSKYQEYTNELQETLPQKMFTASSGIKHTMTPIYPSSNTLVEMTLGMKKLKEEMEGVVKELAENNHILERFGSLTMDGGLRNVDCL
Summary of the method: (§1)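 Each recombinant kinase enzyme system was run per the manufacturer's protocol in 40 mM Tris pH 7.5, 20 mM MgCl2 and 0.1 mg/mL BSA. Kinase activity was detected as ADP formation by ADP-Glo luminescence.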

IKKε = target: T2, IKKε (Homo sapiens, UniProt Q14164); assay: IKKε inhibition, ADP-Glo Kinase Assay; format: biochemical; settings: luminometer
T2 construct: purchased Invitrogen PR8031B
T2 sequence (Q14164 1-716): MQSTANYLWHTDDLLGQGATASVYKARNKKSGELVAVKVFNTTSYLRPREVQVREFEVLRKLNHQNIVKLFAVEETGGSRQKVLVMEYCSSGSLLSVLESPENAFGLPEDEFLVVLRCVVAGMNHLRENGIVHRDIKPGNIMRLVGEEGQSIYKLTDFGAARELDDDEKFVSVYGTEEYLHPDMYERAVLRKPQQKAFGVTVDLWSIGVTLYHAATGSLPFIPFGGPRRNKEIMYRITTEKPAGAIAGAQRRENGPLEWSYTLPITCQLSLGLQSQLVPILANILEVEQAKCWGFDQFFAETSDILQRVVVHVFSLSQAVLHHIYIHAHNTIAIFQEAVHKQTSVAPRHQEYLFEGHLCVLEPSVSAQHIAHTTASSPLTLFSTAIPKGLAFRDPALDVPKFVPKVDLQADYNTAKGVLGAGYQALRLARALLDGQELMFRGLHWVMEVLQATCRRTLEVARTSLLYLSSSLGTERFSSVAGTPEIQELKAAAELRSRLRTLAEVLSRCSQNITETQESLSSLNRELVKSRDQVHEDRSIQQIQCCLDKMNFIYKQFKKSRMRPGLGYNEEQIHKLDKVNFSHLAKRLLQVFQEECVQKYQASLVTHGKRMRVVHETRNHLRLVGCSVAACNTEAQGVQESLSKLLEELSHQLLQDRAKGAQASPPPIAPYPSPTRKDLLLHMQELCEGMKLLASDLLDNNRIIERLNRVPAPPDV
Summary of the method: as §1

IC50 (TBK1)	IC50 (IKKε)	Compound
0.0048 µM	0.018 µM	C[C@@H]1CN(c2ccc(C(=O)Nc3n[nH]c4ccc(C(=O)NC5(c6ccccc6)CC5)cc34)cc2)CCN1 [Example 77, (R)-3-(4-(3-Methylpiperazin-1-yl)benzamido)-N-(1-phenylcyclopropyl)-1H-indazole-5-carboxamide]
0.0085 µM	0.038 µM	CN1CCN(c2ccc(C(=O)Nc3n[nH]c4ccc(C(=O)NC(c5cccs5)C(F)(F)F)cc34)cc2)CC1 (stereo not shown) [Example 135, 3-(4-(4-Methylpiperazin-1-yl)benzamido)-N-(2,2,2-trifluoro-1-(thiophen-2-yl)ethyl)-1H-indazole-5-carboxamide]
0.0033 µM	0.071 µM	C[C@H]1CN(c2ccc(C(=O)Nc3n[nH]c4ccc(C(=O)NCc5cccs5)cc34)cc2)CCN1 [Example 117, (S)-3-(4-(3-Methylpiperazin-1-yl)benzamido)-N-(thiophen-2-ylmethyl)-1H-indazole-5-carboxamide 2,2,2-trifluoroacetate]
0.003 µM	0.005 µM	O=C(Nc1n[nH]c2ccc(C(=O)NC3(c4ccccc4)CC3)cc12)c1ccc(N2CCOCC2)cc1 [Example 67, 3-(4-Morpholinobenzamido)-N-(1-phenylcyclopropyl)-1H-indazole-5-carboxamide]
0.38 µM	2.72 µM	Cc1cc(CNC(=O)c2ccc3[nH]nc(NC(=O)c4ccc(N5CCOCC5)cc4)c3c2)ccn1 [Example 69, N-((2-Methylpyridin-4-yl)methyl)-3-(4-morpholinobenzamido)-1H-indazole-5-carboxamide]
0.0006 µM	0.0042 µM	CN1CCN(c2ccc(C(=O)Nc3n[nH]c4ccc(C(=O)NC5(c6ccccc6)CC5)cc34)cc2)CC1 [Example 68, 3-(4-(4-Methylpiperazin-1-yl)benzamido)-N-(1-phenylcyclopropyl)-1H-indazole-5-carboxamide]
0.033 µM	0.26 µM	CN1CCN(c2ccc(C(=O)Nc3n[nH]c4ccc(C(=O)NCc5ccon5)cc34)cc2)CC1 [Example 173, N-(Isoxazol-3-ylmethyl)-3-(4-(4-methylpiperazin-1-yl)benzamido)-1H-indazole-5-carboxamide]
0.026 µM	0.037 µM	CN1CCN(c2ccc(C(=O)Nc3n[nH]c4ccc(C(=O)NC(c5cccs5)C5CC5)cc34)cc2)CC1 (stereo not shown) [Example 125, N-(Cyclopropyl(thiophen-2-yl)methyl)-3-(4-(4-methylpiperazin-1-yl)benzamido)-1H-indazole-5-carboxamide]
0.037 µM	0.2 µM	Cc1cc(C(=O)Nc2n[nH]c3ccc(C(=O)NCc4cccs4)cc23)ccc1N1CCOCC1 [Example 78, 3-(3-Methyl-4-morpholinobenzamido)-N-(thiophen-2-ylmethyl)-1H-indazole-5-carboxamide]
0.15 µM	0.96 µM	Cc1noc(CNC(=O)c2ccc3[nH]nc(NC(=O)c4ccc(N5CCN(C)CC5)cc4)c3c2)n1 [Example 101, N-((3-Methyl-1,2,4-oxadiazol-5-yl)methyl)-3-(4-(4-methylpiperazin-1-yl)benzamido)-1H-indazole-5-carboxamide 2,2,2-trifluoroacetate]
0.019 µM	0.013 µM	O=C(Nc1n[nH]c2ccc(C(=O)NC(c3cccs3)C3CC3)cc12)c1ccc(N2CCNCC2)cc1 (stereo not shown) [Example 126, N-(Cyclopropyl(thiophen-2-yl)methyl)-3-(4-(piperazin-1-yl)benzamido)-1H-indazole-5-carboxamide]
0.0058 µM	0.037 µM	O=C(NCc1ccco1)c1ccc2[nH]nc(NC(=O)c3ccc(N4CCOCC4)cc3)c2c1 [Example 50, N-(Furan-2-ylmethyl)-3-(4-morpholinobenzamido)-1H-indazole-5-carboxamide]
0.1 µM	1.14 µM	O=C(NCc1ncon1)c1ccc2[nH]nc(NC(=O)c3ccc(N4CCOCC4)cc3)c2c1 [Example 105, N-((1,2,4-Oxadiazol-3-yl)methyl)-3-(4-morpholinobenzamido)-1H-indazole-5-carboxamide 2,2,2-trifluoroacetate]
0.037 µM	0.13 µM	COc1ccc(C(=O)Nc2n[nH]c3ccc(C(=O)NCc4ccco4)cc23)cc1 [Example 2, N-(Furan-2-yl-methyl)-3-(4-methoxybenzamido)-1H-indazole-5-carboxamide]
0.0013 µM	0.014 µM	CC[C@@H](NC(=O)c1ccc2[nH]nc(NC(=O)c3ccc(N4CCN(C)CC4)cc3)c2c1)c1ccccc1 [Example 191, (R)-3-(4-(4-Methylpiperazin-1-yl)benzamido)-N-(1-phenylpropyl)-1H-indazole-5-carboxamide]
0.0036 µM	0.025 µM	CCC(NC(=O)c1ccc2[nH]nc(NC(=O)c3ccc(N4CCN(CC)CC4)cc3)c2c1)c1cccs1 (stereo not shown) [Example 109, 3-(4-(4-Ethylpiperazin-1-yl)benzamido)-N-(1-(thiophen-2-yl)propyl)-1H-indazole-5-carboxamide]
0.11 µM	0.9 µM	CC(C)CC(NC(=O)c1ccc2[nH]nc(NC(=O)c3ccc(N4CCOCC4)cc3)c2c1)c1cccs1 (stereo not shown) [Example 130, N-(3-Methyl-1-(thiophen-2-yl)butyl)-3-(4-morpholinobenzamido)-1H-indazole-5-carboxamide]
0.28 µM	0.93 µM	O=C(NCc1cccs1)c1ccc2[nH]nc(NC(=O)c3ccc(F)cc3F)c2c1 [Example 35, 3-(2,4-Difluorobenzamido)-N-(thiophen-2-ylmethyl)-1H-indazole-5-carboxamide]
0.48 µM	3.12 µM	CC(C)CCNC(=O)c1ccc2[nH]nc(NC(=O)c3ccc(N4CCOCC4)cc3)c2c1 [Example 116, N-Isopentyl-3-(4-morpholinobenzamido)-1H-indazole-5-carboxamide 2,2,2-trifluoroacetate]
0.66 µM	2.46 µM	CCCCNC(=O)c1ccc2[nH]nc(NC(=O)c3ccc(F)cc3)c2c1 [Example 24, N-Butyl-3-(4-fluorobenzamido)-1H-indazole-5-carboxamide]
0.004 µM	0.031 µM	O=C(NCc1cccs1)c1ccc2[nH]nc(NC(=O)c3ccc(N4CCOCC4)cc3)c2c1 [Example 148, 3-(4-Morpholinobenzamido)-N-(thiophen-2-ylmethyl)-1H-indazole-5-carboxamide]
0.0043 µM	0.018 µM	CC1CN(c2ccc(C(=O)Nc3n[nH]c4ccc(C(=O)NC(C)c5ccccc5)cc34)cc2)CC(C)O1 (stereo not shown) [Example 183, 3-(4-(2,6-Dimethylmorpholino)benzamido)-N-(1-phenylethyl)-1H-indazole-5-carboxamide]
0.00093 µM	0.0027 µM	CCC(NC(=O)c1ccc2[nH]nc(NC(=O)c3ccc(N4CCN(C)CC4)cc3)c2c1)c1cccs1 (stereo not shown) [Example 55, 3-(4-(4-Methylpiperazin-1-yl)benzamido)-N-(1-(thiophen-2-yl)propyl)-1H-indazole-5-carboxamide]
0.0049 µM	0.032 µM	C[C@H]1CN(c2ccc(C(=O)Nc3n[nH]c4ccc(C(=O)NC(C)(C)c5cccs5)cc34)cc2)CCN1 [Example 137, (S)-3-(4-(3-Methylpiperazin-1-yl)benzamido)-N-(2-(thiophen-2-yl)propan-2-yl)-1H-indazole-5-carboxamide]
0.0012 µM	0.019 µM	CC(NC(=O)c1ccc2[nH]nc(NC(=O)c3ccc(N4CCN(C)CC4)cc3)c2c1)c1ccccc1 (stereo not shown) [Example 179, 3-(4-(4-Methylpiperazin-1-yl)benzamido)-N-(1-phenylethyl)-1H-indazole-5-carboxamide]
0.0021 µM	0.0049 µM	CC(NC(=O)c1ccc2[nH]nc(NC(=O)c3ccc(N4CCOCC4)cc3)c2c1)c1cccs1 (stereo not shown) [Example 43, 3-(4-Morpholinobenzamido)-N-(1-(thiophen-2-yl)ethyl)-1H-indazole-5-carboxamide]
